System: glycogen synthase
Assay: Glycogen Synthase (GS) Assay
Type: biochemical
Conditions: for EC50: compound concentration needed to give 50% maximum activation; for GS SC200: compound concentration needed to stimulate 200% of the enzyme activity
Experimental: Twelve μL per well of substrate solution containing glycogen (4.32 mg/ml), 2.67 mM UDP-glucose, 21.6 mM phospho(enol)pyruvate and 2.7 mM NADH in 30 mM glycylglycine, pH 7.3 buffer was added into a polystyrene 384-well assay plate (BD Biosciences).
Compound solutions (8 μL/well) at various concentrations (0-300 μM) were added to the assay plate (columns 5-24). Compound solution contains 30 mM glycylglycine, pH 7.3, 40 mM KCl, 20 mM MgCl2, 9.2% DMSO, with (columns 15-24) or without (columns 5-14) 20 mM glucose 6-phosphate.
Enzyme solution (12 μL/well) containing glycogen synthase (16.88 μg/ml), pyruvate kinase (0.27 mg/ml), lactate dehydrogenase (0.27 mg/ml) in 50 mM Tris-HCl, pH 8.0, 27 mM DTT and bovine serum albumin (BSA, 0.2 mg/ml) was added to the assay plate (columns 3-24). As a blank control, enzyme solution without glycogen synthase was added into the top half wells of columns 1-2. To the bottom half wells of columns 1-2 were added a known activator, glucose 6-phosphate (at final concentration 5 mM) in addition to the enzyme solution. The reaction mixture was incubated at room temperature. The assay plate was then read for absorbance at 340 nm on an Envision reader every 3 minutes up to a total of 15 minutes.
The enzyme activity (with or without compound) was calculated by the reaction rate and represented by the optical density change (δOD) per minute. Percent stimulation of glycogen synthase activity by a compound at various concentrations was calculated by the following formula: % stimulation=100*Rs/Rt,
Where Rs is the reaction rate of the enzyme in the presence of compound and Rt is the reaction rate of the enzyme in the absence of compound.
SC200 is defined as the compound concentration that is needed to stimulate 200% of the enzyme activity. EC50 is defined as the compound concentration that is needed to give 50% maximum activation.

EC50 [µM] | SMILES | GS SC200 [µM]
0.12 | O=C(O)[C@@H]1CCCN1C(=O)c1cccc(COc2ccc(-c3ccc(F)cc3F)cc2)c1 [Example 1, (S)-1-[3-(2′,4′-Difluoro-biphenyl-4-yloxymethyl)-benzoyl]-pyrrolidine-2-carboxylic acid] | 0.02
2.1 | O=C(c1cccc(COc2ccc(-c3cc(F)c(F)cc3F)cc2)c1)N1CCC[C@H]1c1nnn[nH]1 [Example 6, [(S)-2-(1H-Tetrazol-5-yl)-pyrrolidin-1-yl]-[3-(2′,4′,5′-trifluoro-biphenyl-4-yloxymethyl)-phenyl]-methanone] | 0.59
0.04 | Cc1cc(F)c(F)cc1-c1ccc(OCc2cccc(C(=O)N3CCC[C@H]3C(=O)O)c2)cc1 [Example 3, (S)-1-[3-(4′,5′-Difluoro-2′-methyl-biphenyl-4-yloxymethyl)-benzoyl]-pyrrolidine-2-carboxylic acid] | 0.001
0.69 | O=C(NS(=O)(=O)C1CC1)c1cccc(COc2ccc(-c3cc(F)c(F)cc3F)cc2)c1 [Example 12, Cyclopropanesulfonic acid 3-(2′,4′,5′-trifluoro-biphenyl-4-yloxymethyl)-benzoylamide] | 0.14
0.1 | CN(CC(=O)O)C(=O)c1cccc(COc2ccc(-c3cc(F)c(F)cc3F)cc2F)c1 [Example 14] | 0.01
0.2 | COc1cc(F)c(F)cc1-c1ccc(OCc2cccc(C(=O)N(CC(=O)O)C(C)(C)C)c2)cc1 [Example 8, {tert-Butyl-[3-(4′,5′-difluoro-2′-methoxy-biphenyl-4-yloxymethyl)-benzoyl]-amino}-acetic acid] | 0.01
0.11 | COc1cc(F)c(F)cc1-c1ccc(OCc2nc(C(=O)N(CC(=O)O)C(C)(C)C)cs2)cc1 [Example 9, {tert-Butyl-[2-(4′,5′-difluoro-2′-methoxy-biphenyl-4-yloxymethyl)-thiazole-4-carbonyl]-amino}-acetic acid] | 0.01
0.2 | CN(CC(=O)NS(C)(=O)=O)C(=O)c1cccc(COc2ccc(-c3cc(F)c(F)cc3F)cc2)c1 [Example 5, N-(2-Methanesulfonylamino-2-oxo-ethyl)-N-methyl-3-(2′,4′,5′-trifluoro-biphenyl-4-yloxymethyl)-benzamide] | 0.07
0.1 | CN(CC(=O)O)C(=O)c1cccc(COc2ccc(-c3cc(F)c(F)cc3F)cc2)c1 [Example 10, {Methyl-[3-(2′,4′,5′-trifluoro-biphenyl-4-yloxymethyl)-benzoyl]-amino}-acetic acid] | 0.04
0.08 | Cc1cc(F)c(F)cc1-c1ccc(OCc2cccc(C(=O)N(C)CC(=O)O)c2)cc1 [Example 4, {[3-(4′,5′-Difluoro-2′-methyl-biphenyl-4-yloxymethyl)-benzoyl]-methyl-amino}-acetic acid] | 0.01
0.14 | COc1cc(F)c(F)cc1-c1ccc(OCc2cccc(C(=O)N3CCC[C@H]3C(=O)O)c2)cc1 [Example 2, (S)-1-[3-(4′,5′-Difluoro-2′-methoxy-biphenyl-4-yloxymethyl)-benzoyl]-pyrrolidine-2-carboxylic acid] | 0.02
0.1 | COc1cc(F)c(F)cc1-c1ccc(OCc2cccc(C(=O)N(C)CC(=O)O)c2)cc1 [Example 7, {[3-(4′,5′-Difluoro-2′-methoxy-biphenyl-4-yloxymethyl)-benzoyl]-methyl-amino}-acetic acid] | 0.02
0.16 | COc1cc(F)c(F)cc1-c1ccc(OCc2cccc(C(=O)N(C)CC(=O)O)c2)cc1F [Example 11, {Methyl-[3-(2,4′,5′-trifluoro-2′-methoxy-biphenyl-4-yloxymethyl)-benzoyl]-amino}-acetic acid] | 0.01
0.08 | COc1cc(F)c(F)cc1-c1ccc(OCc2cc(C(=O)N(C)CC(=O)O)ccc2F)cc1 [Example 13, {[3-(4′,5′-Difluoro-2′-methoxy-biphenyl-4-yloxymethyl)-4-fluoro-benzoyl]-methyl-amino}-acetic acid] | 0.004
0.22 | COc1cc(F)c(F)cc1-c1ccc(OCc2cccc(C(=O)N3CCC[C@@H]3C(=O)O)c2)cc1 [Example 15, (R)-1-[3-(4′,5′-Difluoro-2′-methoxy-biphenyl-4-yloxymethyl)-benzoyl]-pyrrolidine-2-carboxylic acid] | 0.05
